# Reference: PMC12466757, “1,5-Diarylidene-4-Piperidones as Promising Antifungal Candidates Against Cryptococcus neoformans” (Antibiotics, 2025)
# What was measured:
# [1] = test system: Penicillium verrucosum (DSM 12639); assay: MIC assay, filamentous fungus P. verrucosum; type: cell-based; details: DSM12639, DSM 12639, plant pathogen, 25 °C, 48–72 h
# Magnaporthe oryzae = assay: microbe, parasite or virus in culture; type: cell-based; details: Pyricularia oryzae, read-out: MIC M. oryzae
# [2] = test system: Candida glabrata (DSM 11226); assay: MIC assay, pathogenic yeast C. glabrata; type: cell-based; details: Nakaseomyces glabratus, DSM11226, 35 °C, 24–48 h
# [3] = test system: Candida auris (DSM 21092); assay: MIC assay, pathogenic yeast C. auris; type: cell-based; details: Candidozyma auris, DSM21092, 35 °C, 24–48 h
# A. fumigatus (DSM 819) = assay: MIC assay, filamentous fungus A. fumigatus; type: cell-based; details: Aspergillus fumigatus, DSM819; DSM 819, human pathogen; 35 °C, 24–48 h
# [4] = test system: Aspergillus flavus (DSM 1959); assay: MIC assay, filamentous fungus A. flavus; type: cell-based; details: DSM1959, DSM 1959, plant pathogen, 25 °C, 48–72 h
# [5] = test system: Fusarium graminearum (DSM 1095); assay: microbe, parasite or virus in culture; type: cell-based; details: DSM1095, read-out: MIC F. graminearum
# [6] = test system: Trichophyton rubrum (DSM16111); assay: MIC assay, filamentous fungus T. rubrum; type: cell-based; details: DSM16111, human pathogen, 35 °C, 24–48 h
# [7] = test system: Candida albicans (DSM 10697); assay: MIC assay, pathogenic yeast C. albicans; type: cell-based; details: DSM10697, 35 °C, 24–48 h
# [8] = test system: Cryptococcus neoformans (DSM11959); assay: MIC assay against C. neoformans; type: cell-based; details: 35 °C, 24–48 h
# [9] = test system: Candida tropicalis (DSM 9419); assay: MIC assay, pathogenic yeast C. tropicalis; type: cell-based; details: DSM9419, 35 °C, 24–48 h
# [10] = test system: Microdochium bolleyi (DSM 62073); assay: MIC assay, filamentous fungus M. bolleyi; type: cell-based; details: 48–72 h
# [11] = test system: Colletotrichum graminicola (DSM 63127); assay: MIC assay, filamentous fungus C. graminicola; type: cell-based; details: DSM63127, DSM 63127, plant pathogen, 25 °C, 48–72 h
# in vitro = details: human, Caco-2
# [12] = test system: various human cells, i.e., A498, BEAS-2B, Caco-2, HaCaT, and HepG2
# [13] = Cytotoxicity, resazurin cell viability assay, Caco-2; details: human
# [14] = Cytotoxicity, resazurin cell viability assay, HaCaT; details: human
# [15] = Cytotoxicity, resazurin cell viability assay, HepG2; details: human
# [16] = Cytotoxicity, resazurin cell viability assay, A498; details: human
# [17] = Cytotoxicity, resazurin cell viability assay, BEAS-2B; details: human
# [18] = test system: Staphylococcus aureus (ATCC 6538); assay: Antibacterial liquid MIC determination, S. aureus; type: cell-based; details: ATCC6538, Gram-positive
# [19] = DSM62073, DSM 62073, plant pathogen, 25 °C
# [20] = C. neoformans DSM 11959, lowest concentration totally inhibiting growth
# [21] = Cryptococcus neoformans, DSM11959, C. neoformans DSM 11959, lowest concentration totally inhibiting growth
smiles,measurement,setting,value
CCCCOc1ccc(/C=C2\CN(CC)C/C(=C\c3ccc(OCCCC)c(OCCCC)c3OCCCC)C2=O)c(OCCCC)c1OCCCC [2m],MIC,[1],> 250 µM
same,MIC,Magnaporthe oryzae,62.5 µM
same,MIC,[2],15.6 µM
same,MIC,[3],31.2 µM
same,MIC,A. fumigatus (DSM 819),250 µM
same,MIC,[4],> 250 µM
same,MIC,[5],> 250 µM
same,MIC,[6],31.2 µM
same,MIC,[7],125 µM
same,MIC,"[8]; Cryptococcus neoformans, DSM11959, C. neoformans DSM 11959, […]",62.5 µM
same,MIC,[9],250 µM
same,MIC,[10]; [19],> 250 µM
same,MIC,[11],> 250 µM
same,CC50 at 48 h,in vitro,687 µM
CCCCOc1ccc(/C=C2\CCC/C(=C\c3ccc(OCCCC)cc3OCCCC)C2=O)c(OCCCC)c1 [8h],MIC,[8]; [20],>250 µM
same,MIC,[8]; [21],> 250 µM
CCCCOc1ccc(/C=C2\CN(C(=O)OCc3ccccc3)C/C(=C\c3ccc(OCCCC)cc3OCCCC)C2=O)c(OCCCC)c1 [7h],MIC,[8]; [20],>250 µM
same,MIC,[8]; [21],> 250 µM
"CCN1C/C(=C\c2ccc(C)cc2)C(=O)/C(=C/c2ccc(C)cc2)C1 [1b, 1-ethyl-3,5-bis((E)-4-methylbenzylidene)piperidin-4-one]",MIC,[8]; [21],250 µM
same,CC50 at 48 h,in vitro,86.2 µM
C=CCOc1ccc(/C=C2\CN(CC)C/C(=C\c3ccc(OCC=C)cc3OCC=C)C2=O)c(OCC=C)c1 [2g],MIC,[8]; [20],>250 µM
same,MIC,[8]; [21],> 250 µM
CCCCOc1ccc(/C=C2\CN(S(C)(=O)=O)C/C(=C\c3ccc(OCCCC)cc3OCCCC)C2=O)c(OCCCC)c1 [6h],MIC,[8]; [20],>250 µM
same,MIC,[8]; [21],> 250 µM
COc1ccc(/C=C2\CN(Cc3ccccc3)C/C(=C\c3ccc(OC)cc3OC)C2=O)c(OC)c1 [3a],MIC,[8]; [20],>250 µM
same,MIC,[8]; [21],> 250 µM
CCN1C/C(=C\c2ccc(C#N)cc2)C(=O)/C(=C/c2ccc(C#N)cc2)C1 [1c],MIC,[8]; [21],250 µM
same,CC50 at 48 h,in vitro,70.3 µM
CCCCOc1ccc(/C=C2\CN(Cc3ccccc3)C/C(=C\c3ccc(OCCCC)cc3OCCCC)C2=O)c(OCCCC)c1 [3h],MIC,[1],62.5 µM
same,MIC,Magnaporthe oryzae,7.8 µM
same,MIC,[2],7.8 µM
same,MIC,[3],7.8 µM
same,MIC,A. fumigatus (DSM 819),31.2 µM
same,MIC,[4],31.2 µM
same,MIC,[5],125 µM
same,MIC,[6],7.8 µM
same,MIC,[7],62.5 µM
same,MIC,[8]; [21],7.8 µM
same,MIC,[9],125 µM
same,MIC,"[10]; DSM62073, 25 °C",7.8 µM
same,MIC,[10]; [19],31.2 µM
same,MIC,[11],250 µM
same,CC50 at 48 h,in vitro,629 µM
"CCN1C/C(=C\c2ccc(OC)cc2OC)C(=O)/C(=C/c2ccc(OC)cc2OC)C1 [2a, 3,5-bis((E)-2,4-dimethoxybenzylidene)-1-ethylpiperidin-4-one]",MIC,[8]; [20],>250 µM
same,MIC,[8]; [21],> 250 µM
"OC(Cn1cncn1)(Cn1cncn1)c1ccc(F)cc1F [Fluconazole, reference compound]",MIC,[1],> 1000 µM
same,MIC,Magnaporthe oryzae,12.5 µM
same,MIC,[2],250 µM
same,MIC,[3],500 µM
same,CC50 (range depending on the cell model),[12],841.2 to >1000
same,MIC,A. fumigatus (DSM 819),> 1000 µM
same,MIC,[4],> 1000 µM
same,MIC,[5],> 1000 µM
same,MIC,[6],> 1000 µM
same,MIC,[7],6.25 µM
same,MIC,[8]; [21],25 µM
same,CC50 at 48 h,[13],977 µM
same,CC50 at 48 h,[14]; HaCaT skin cells,841 µM
same,MIC,[9],1000 µM
same,CC50 at 48 h,[15]; HepG2 liver cells,> 1000 µM
same,CC50 at 48 h,[16]; A498 kidney cells,994 µM
same,MIC,[10]; [19],> 1000 µM
same,CC50 at 48 h,[17]; BEAS-2B airway epithelial cells,942 µM
same,MIC,[11],50 µM
CCCCOc1ccc(/C=C2/C(=O)/C(=C/c3ccc(OCCCC)cc3OCCCC)C3CCC2N3C)c(OCCCC)c1 [2n],MIC,[8]; [21],> 250 µM
CCCCOc1ccc(/C=C2\CN(Cc3ccccc3)C/C(=C\c3ccc(OCCCC)c(OCCCC)c3)C2=O)cc1OCCCC [3iso-h],MIC,[1],125 µM
same,MIC,Magnaporthe oryzae,15.6 µM
same,MIC,[2],62.5 µM
same,MIC,[3],31.2 µM
same,MIC,A. fumigatus (DSM 819),125 µM
same,MIC,[4],> 250 µM
same,MIC,[5],> 250 µM
same,MIC,[6],125 µM
same,MIC,[7],250 µM
same,MIC,[8]; [21],62.5 µM
same,MIC,[9],125 µM
same,MIC,[10]; [19],62.5 µM
same,MIC,[11],125 µM
same,CC50 at 48 h,in vitro,> 1000 µM
CCCCOc1ccc(/C=C2\CC(C)C/C(=C\c3ccc(OCCCC)cc3OCCCC)C2=O)c(OCCCC)c1 (stereo not drawn) [9h],MIC,[8]; [21],> 250 µM
CCN1C/C(=C\c2ccc(Cl)cc2)C(=O)/C(=C/c2ccc(Cl)cc2)C1 [1e],MIC,[8]; [21],250 µM
same,CC50 at 48 h,in vitro,98.6 µM
CCN1C/C(=C\c2ccc3c(c2)OCO3)C(=O)/C(=C/c2ccc3c(c2)OCO3)C1 [2i],MIC,[8]; [21],250 µM
same,CC50 at 48 h,in vitro,152 µM
O=C1/C(=C/c2ccc[nH]2)CN(Cc2ccccc2)C/C1=C\c1ccc[nH]1 [3j],MIC,[18],250 µM
same,MIC,[8]; [21],62.5 µM
same,CC50 at 48 h,in vitro,26.1 µM
CCN1C/C(=C\c2cnc3ccccc3c2)C(=O)/C(=C/c2cnc3ccccc3c2)C1 [2l],MIC,[18],250 µM
same,MIC,[8]; [21],250 µM
same,CC50 at 48 h,in vitro,30 µM
CCN1C/C(=C\c2ccc(C(F)(F)F)cc2)C(=O)/C(=C/c2ccc(C(F)(F)F)cc2)C1 [1f],MIC,[8]; [21],250 µM
same,CC50 at 48 h,in vitro,47 µM
CCN1C/C(=C\c2ccccc2F)C(=O)/C(=C/c2ccccc2F)C1 [2j],MIC,[8]; [21],250 µM
same,CC50 at 48 h,in vitro,68.3 µM
CCCCOc1ccc(/C=C2\CC(C(C)(C)C)C/C(=C\c3ccc(OCCCC)cc3OCCCC)C2=O)c(OCCCC)c1 (stereo not drawn) [10h],MIC,[8]; [21],> 250 µM
"CCN1C/C(=C\c2ccc(OC)cc2)C(=O)/C(=C/c2ccc(OC)cc2)C1 [1a, 1-ethyl-3,5-bis((E)-4-methoxybenzylidene)piperidin-4-one]",CC50 (range depending on the cell model),[12],64.9 to >1000
same,MIC,[8]; [21],125 µM
same,CC50 at 48 h,in vitro,314 µM
CCCCOc1ccc(/C=C2\CN(Cc3ccccc3)C/C(=C\c3ccc(OCCCC)cc3)C2=O)cc1 [2o],CC50 (range depending on the cell model),[12],64.9 to >1000
same,MIC,[8]; [21],125 µM
same,CC50 at 48 h,in vitro,455 µM
"CCCCOc1ccc(/C=C2\CN(CC)C/C(=C\c3ccc(OCCCC)cc3OCCCC)C2=O)c(OCCCC)c1 [2h, 3,5-bis((E)-2,4-dibutoxybenzylidene) -1-ethylpiperidin-4-one]",MIC,[1],125 µM
same,MIC,Magnaporthe oryzae,15.6 µM
same,MIC,[2],31.2 µM
same,MIC,[3],31.2 µM
same,MIC,A. fumigatus (DSM 819),125 µM
same,MIC,[4],> 250 µM
same,MIC,[5],> 250 µM
same,MIC,[6],62.5 µM
same,MIC,[7],250 µM
same,MIC,[8]; [21],31.2 µM
same,MIC,[9],250 µM
same,MIC,[10]; [19],62.5 µM
same,MIC,[11],> 250 µM
same,CC50 at 48 h,in vitro,697 µM
CCN1C/C(=C\c2ccc([N+](=O)[O-])cc2)C(=O)/C(=C/c2ccc([N+](=O)[O-])cc2)C1 [1d],MIC,[8]; [21],250 µM
same,CC50 at 48 h,[13],95.4 µM
same,CC50 at 48 h,[14],163 µM
same,CC50 at 48 h,[15],314 µM
same,CC50 at 48 h,[16],486 µM
same,CC50 at 48 h,[17],364 µM
CCCCOc1ccc(/C=C2\CN(C(=O)OC(C)(C)C)C/C(=C\c3ccc(OCCCC)cc3OCCCC)C2=O)c(OCCCC)c1 [5h],MIC,[8]; [20],>250 µM
same,MIC,[8]; [21],> 250 µM
